Holding throughout (assay): KinomeScan kinase profiling
Type in all cases: binding

Assay [1] has as its target T1, BIKE (Homo sapiens, UniProt Q9NSY1).
T1 construct: purchased Ambit Biosciences Corp (KinomeScan); host or cells: E. coli host derived from the BL21 strain, T7 phage
Put shortly:
(§1)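 Kinases were expressed as T7 phage fusions in a BL21-derived E. coli host and the cleared lysates were used. Ligand beads were blocked with biotin and buffer (1% BSA, 0.05% Tween 20, 1 mM DTT). Compounds came from 40× DMSO stocks, and phage in the eluates was titred by qPCR.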

Assay [2] addresses T2, DAPK3 (Homo sapiens, UniProt O43293).
T2 construct: purchased Ambit Biosciences Corp (KinomeScan); host or cells: T7 phage in E. coli host derived from BL21
Put shortly: as §1

Assay [3] has as its target T3, EGFR (L747-T751del, Sins) (Homo sapiens, UniProt P00533, DEL747-750/T751S).
T3 construct: host or cells: E. coli host derived from BL21, T7 phage lysate
Put shortly: as §1

Assay [4] addresses T4, EPHB1 (Homo sapiens, UniProt P54762).
T4 construct: host or cells: E. coli host derived from BL21, T7 phage lysate
In outline:
as §1

Assay [5] has as its target T5, FAK (Homo sapiens, UniProt Q05397).
T5 construct: host or cells: E. coli host derived from BL21, T7 phage lysate
Put shortly:
as §1

Assay [6] concerns the target T6, FGFR3 (Homo sapiens, UniProt P22607).
T6 construct: host or cells: E. coli host derived from BL21, infected with T7 phage
In outline:
as §1

Assay [7] addresses T7, JAK3 (JH1domain-catalytic) (Homo sapiens, UniProt P52333).
T7 construct: JAK3 (JH1domain-catalytic); host or cells: T7 phage in E. coli host derived from BL21
In outline:
as §1

Assay [8] addresses T8, LOK (Homo sapiens, UniProt O94804).
T8 construct: host or cells: E. coli derived from BL21, infected with T7 phage
In outline: as §1

For assay [9], the target named is T9, MARK4 (Homo sapiens, UniProt Q96L34).
T9 construct: host or cells: E. coli derived from BL21, infected with T7 phage
T9 sequence (Q96L34 whole entry): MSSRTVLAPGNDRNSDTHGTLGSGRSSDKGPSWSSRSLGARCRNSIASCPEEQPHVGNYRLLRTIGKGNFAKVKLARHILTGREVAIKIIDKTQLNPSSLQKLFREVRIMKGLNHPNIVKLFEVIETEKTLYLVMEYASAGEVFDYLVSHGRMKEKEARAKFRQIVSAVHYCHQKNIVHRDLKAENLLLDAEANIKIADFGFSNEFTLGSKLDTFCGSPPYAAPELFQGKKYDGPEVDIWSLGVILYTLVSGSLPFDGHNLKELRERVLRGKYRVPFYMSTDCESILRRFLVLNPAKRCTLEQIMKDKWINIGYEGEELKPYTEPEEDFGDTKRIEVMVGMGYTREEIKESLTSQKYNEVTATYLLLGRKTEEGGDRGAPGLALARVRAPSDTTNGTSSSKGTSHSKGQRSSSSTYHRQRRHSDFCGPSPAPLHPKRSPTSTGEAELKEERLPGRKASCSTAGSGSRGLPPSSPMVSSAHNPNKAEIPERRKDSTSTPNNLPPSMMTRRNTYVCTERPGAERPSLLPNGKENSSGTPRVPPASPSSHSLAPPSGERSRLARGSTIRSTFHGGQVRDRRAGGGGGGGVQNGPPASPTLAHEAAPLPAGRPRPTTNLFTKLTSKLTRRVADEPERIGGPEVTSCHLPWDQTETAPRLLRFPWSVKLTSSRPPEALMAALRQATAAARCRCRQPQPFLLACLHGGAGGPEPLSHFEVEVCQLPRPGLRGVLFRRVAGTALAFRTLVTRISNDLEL
In outline:
as §1

Assay [10] has as its target T10, MYLK (Homo sapiens, UniProt Q15746).
T10 construct: host or cells: T7 phage in E. coli host derived from BL21
Put shortly:
as §1

Assay [11] deals with T11, NLK (Homo sapiens, UniProt Q9UBE8).
T11 construct: host or cells: E. coli host derived from the BL21 strain, infected with T7 phage
T11 sequence (Q9UBE8 whole entry): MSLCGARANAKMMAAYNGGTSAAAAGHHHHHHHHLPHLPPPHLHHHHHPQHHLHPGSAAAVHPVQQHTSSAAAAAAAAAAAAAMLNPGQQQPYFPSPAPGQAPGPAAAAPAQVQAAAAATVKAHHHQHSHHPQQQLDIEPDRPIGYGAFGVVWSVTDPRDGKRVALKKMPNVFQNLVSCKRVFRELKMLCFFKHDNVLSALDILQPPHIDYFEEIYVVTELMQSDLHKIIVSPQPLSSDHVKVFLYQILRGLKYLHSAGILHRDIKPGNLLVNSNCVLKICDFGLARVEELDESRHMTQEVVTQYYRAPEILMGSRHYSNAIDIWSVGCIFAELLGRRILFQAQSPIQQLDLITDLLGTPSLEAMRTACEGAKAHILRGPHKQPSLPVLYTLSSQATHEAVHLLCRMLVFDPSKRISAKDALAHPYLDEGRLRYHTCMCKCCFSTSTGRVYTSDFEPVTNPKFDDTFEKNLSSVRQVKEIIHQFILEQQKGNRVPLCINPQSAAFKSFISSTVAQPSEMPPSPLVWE
In outline: as §1

The target of assay [12] is T12, PCTK1 (Homo sapiens, UniProt Q00536).
T12 construct: host or cells: E. coli host derived from the BL21 strain, infected with T7 phage
Put shortly:
as §1

Assay [13] has as its target T13, PHKG1 (Homo sapiens, UniProt Q16816).
T13 construct: host or cells: E. coli host derived from the BL21 strain, infected with T7 phage
In outline:
as §1

Assay [14] concerns the target T14, PLK1 (Homo sapiens, UniProt P53350).
T14 construct: purchased Ambit Biosciences Corp (KinomeScan); host or cells: E. coli host derived from BL21, infected with T7 phage
In outline: as §1

Assay [15] addresses T15, PLK3 (Homo sapiens, UniProt Q9H4B4).
T15 construct: purchased Ambit Biosciences Corp (KinomeScan); host or cells: E. coli host derived from BL21, infected with T7 phage
Put shortly:
as §1

The target in assay [16] is T16, PRKCH (Homo sapiens, UniProt P24723).
T16 construct: purchased Ambit Biosciences Corp (KinomeScan); host or cells: E. coli host derived from BL21, infected with T7 phage
Put shortly:
as §1

Assay [17] addresses T17, PRKD2 (Homo sapiens, UniProt Q9BZL6).
T17 construct: purchased Ambit Biosciences Corp (KinomeScan); host or cells: E. coli host derived from BL21, infected with T7 phage
Put shortly:
as §1

For assay [18], the target named is T18, PYK2 (Homo sapiens, UniProt Q14289).
T18 construct: host or cells: E. coli host derived from BL21, T7 phage lysate
T18 sequence (Q14289 whole entry): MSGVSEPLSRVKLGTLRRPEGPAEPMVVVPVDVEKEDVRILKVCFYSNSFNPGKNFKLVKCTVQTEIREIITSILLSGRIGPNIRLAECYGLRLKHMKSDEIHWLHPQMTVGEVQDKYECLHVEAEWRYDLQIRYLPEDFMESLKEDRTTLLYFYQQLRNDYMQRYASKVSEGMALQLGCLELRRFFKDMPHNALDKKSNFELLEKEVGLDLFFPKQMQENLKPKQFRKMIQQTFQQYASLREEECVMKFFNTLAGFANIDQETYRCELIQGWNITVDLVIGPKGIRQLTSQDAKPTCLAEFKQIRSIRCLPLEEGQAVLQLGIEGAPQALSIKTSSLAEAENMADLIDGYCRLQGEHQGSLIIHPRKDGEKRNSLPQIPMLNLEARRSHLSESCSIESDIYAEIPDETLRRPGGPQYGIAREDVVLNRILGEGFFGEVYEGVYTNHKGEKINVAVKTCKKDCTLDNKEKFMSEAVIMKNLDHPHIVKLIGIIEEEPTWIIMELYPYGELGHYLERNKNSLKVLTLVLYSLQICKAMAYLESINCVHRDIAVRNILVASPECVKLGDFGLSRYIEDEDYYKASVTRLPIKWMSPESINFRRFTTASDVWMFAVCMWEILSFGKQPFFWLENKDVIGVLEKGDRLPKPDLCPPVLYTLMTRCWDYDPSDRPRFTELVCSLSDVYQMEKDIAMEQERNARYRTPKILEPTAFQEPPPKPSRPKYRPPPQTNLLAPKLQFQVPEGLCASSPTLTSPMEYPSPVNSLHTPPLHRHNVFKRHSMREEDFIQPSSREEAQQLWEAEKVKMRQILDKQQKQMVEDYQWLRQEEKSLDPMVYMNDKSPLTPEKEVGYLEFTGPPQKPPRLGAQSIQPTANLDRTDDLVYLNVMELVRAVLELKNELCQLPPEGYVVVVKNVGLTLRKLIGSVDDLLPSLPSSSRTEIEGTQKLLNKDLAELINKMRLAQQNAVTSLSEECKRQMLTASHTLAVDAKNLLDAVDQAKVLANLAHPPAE
In outline:
as §1

For assay [19], the target named is T19, RET (Homo sapiens, UniProt P07949).
T19 construct: host or cells: E. coli host derived from BL21, T7 phage lysate
Put shortly: as §1

The target in assay [20] is T20, RPS6KA5 (Kin.Dom.-2-C-terminal) (Homo sapiens, UniProt O75582).
T20 construct: RPS6KA5 (Kin.Dom.-2-C-terminal); host or cells: E. coli host derived from BL21, T7 phage lysate
T20 sequence (O75582 426-687 limits assumed): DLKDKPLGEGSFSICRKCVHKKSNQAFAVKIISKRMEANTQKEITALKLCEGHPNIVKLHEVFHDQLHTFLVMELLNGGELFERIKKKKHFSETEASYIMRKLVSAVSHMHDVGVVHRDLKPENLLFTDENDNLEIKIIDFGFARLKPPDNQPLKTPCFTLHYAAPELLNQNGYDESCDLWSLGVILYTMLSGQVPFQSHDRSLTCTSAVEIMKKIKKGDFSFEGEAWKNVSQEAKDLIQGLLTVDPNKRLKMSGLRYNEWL
In outline: as §1

Assay [21] deals with T21, SLK (Homo sapiens, UniProt Q9H2G2).
T21 construct: host or cells: E. coli host derived from the BL21 strain, T7 phage lysate
Put shortly:
as §1

For assay [22], the target named is T22, SRC (Homo sapiens, UniProt P12931).
T22 construct: host or cells: E. coli host derived from the BL21 strain, T7 phage lysate
T22 sequence (P12931 whole entry): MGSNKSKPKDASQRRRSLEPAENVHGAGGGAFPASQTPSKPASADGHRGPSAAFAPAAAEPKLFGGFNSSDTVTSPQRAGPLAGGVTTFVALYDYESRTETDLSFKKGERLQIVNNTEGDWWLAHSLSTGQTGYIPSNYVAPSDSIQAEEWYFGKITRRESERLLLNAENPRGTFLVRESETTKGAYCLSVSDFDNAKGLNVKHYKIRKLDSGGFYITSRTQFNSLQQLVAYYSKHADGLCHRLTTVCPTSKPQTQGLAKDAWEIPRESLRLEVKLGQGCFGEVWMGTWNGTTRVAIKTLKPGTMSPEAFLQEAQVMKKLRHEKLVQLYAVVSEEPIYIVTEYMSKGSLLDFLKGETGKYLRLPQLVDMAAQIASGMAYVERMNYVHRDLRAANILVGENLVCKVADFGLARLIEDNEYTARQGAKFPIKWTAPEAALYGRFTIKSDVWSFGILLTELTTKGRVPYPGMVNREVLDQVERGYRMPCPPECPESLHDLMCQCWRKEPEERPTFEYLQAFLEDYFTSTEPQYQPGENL
Put shortly: as §1

Data on 1 compound can be found in US9050341B2, “Methods of treating drug resistant and other tumors by administering 6,7-dialkoxy quinazoline derivatives” (NATCO PHARMA LIMITED, priority 2009, dated 2015).

T15 sequence (Q9H4B4 whole entry): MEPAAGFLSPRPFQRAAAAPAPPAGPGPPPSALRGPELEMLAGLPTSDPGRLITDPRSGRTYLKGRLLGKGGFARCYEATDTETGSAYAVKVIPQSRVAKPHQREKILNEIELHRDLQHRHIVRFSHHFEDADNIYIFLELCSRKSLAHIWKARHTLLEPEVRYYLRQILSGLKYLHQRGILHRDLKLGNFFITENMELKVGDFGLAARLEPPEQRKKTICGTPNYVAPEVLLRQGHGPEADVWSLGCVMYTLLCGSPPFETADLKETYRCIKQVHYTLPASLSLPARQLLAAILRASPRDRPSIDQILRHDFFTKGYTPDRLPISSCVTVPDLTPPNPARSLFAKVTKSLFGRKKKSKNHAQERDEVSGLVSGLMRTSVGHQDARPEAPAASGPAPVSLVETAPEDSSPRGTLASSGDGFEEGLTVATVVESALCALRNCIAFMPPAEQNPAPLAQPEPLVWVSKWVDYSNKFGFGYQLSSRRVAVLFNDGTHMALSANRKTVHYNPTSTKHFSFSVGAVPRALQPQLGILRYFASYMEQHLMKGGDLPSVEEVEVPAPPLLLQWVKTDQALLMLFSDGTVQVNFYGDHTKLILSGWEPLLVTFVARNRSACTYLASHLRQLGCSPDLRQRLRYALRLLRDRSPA
T13 sequence (Q16816 whole entry): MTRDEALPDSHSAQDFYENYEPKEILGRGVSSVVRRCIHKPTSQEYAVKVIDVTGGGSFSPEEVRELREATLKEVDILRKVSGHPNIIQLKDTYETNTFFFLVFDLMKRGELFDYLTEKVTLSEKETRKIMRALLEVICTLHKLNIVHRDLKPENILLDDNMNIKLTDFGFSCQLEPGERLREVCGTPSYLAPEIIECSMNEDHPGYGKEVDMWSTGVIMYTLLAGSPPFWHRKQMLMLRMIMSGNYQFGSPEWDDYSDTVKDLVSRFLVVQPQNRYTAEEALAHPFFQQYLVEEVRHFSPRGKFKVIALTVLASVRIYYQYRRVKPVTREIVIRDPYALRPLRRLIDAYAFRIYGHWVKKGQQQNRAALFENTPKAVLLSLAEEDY
T7 sequence (P52333 822-1111 limits assumed): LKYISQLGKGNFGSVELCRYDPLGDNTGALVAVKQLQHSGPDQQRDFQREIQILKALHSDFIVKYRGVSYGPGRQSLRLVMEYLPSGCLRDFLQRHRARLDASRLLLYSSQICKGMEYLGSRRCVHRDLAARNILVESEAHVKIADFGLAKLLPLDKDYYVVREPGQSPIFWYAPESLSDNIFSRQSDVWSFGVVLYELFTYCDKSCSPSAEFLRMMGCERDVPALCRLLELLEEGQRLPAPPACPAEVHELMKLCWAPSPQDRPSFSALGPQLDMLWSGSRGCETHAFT
T2 sequence (O43293 whole entry): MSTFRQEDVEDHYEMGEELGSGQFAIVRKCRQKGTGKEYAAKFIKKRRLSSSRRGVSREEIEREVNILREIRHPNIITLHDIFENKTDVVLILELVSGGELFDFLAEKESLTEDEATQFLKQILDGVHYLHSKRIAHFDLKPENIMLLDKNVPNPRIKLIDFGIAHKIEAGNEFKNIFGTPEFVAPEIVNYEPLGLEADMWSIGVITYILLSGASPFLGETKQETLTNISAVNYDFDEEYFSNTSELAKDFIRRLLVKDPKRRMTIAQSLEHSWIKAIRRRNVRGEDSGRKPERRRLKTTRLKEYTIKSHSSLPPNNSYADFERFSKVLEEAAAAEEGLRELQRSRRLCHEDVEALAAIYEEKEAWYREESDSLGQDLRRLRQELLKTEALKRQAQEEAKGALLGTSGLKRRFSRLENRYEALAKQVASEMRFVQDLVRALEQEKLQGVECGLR

`C#Cc1cccc(Nc2ncnc3cc(OC)c(OCCCN4CCOCC4)cc23)c1` [NRC-2694, N-(3-ethylnylphenyl)-7-methoxy-6-[3-(4-morpholinyl)propoxy]-4-quinazolinamine]: the “% Ctrl @ 10000 nM” value in assay [1] is reported as 36 % Ctrl; in assay [2] it was 34 % Ctrl; in assay [3], 0 % Ctrl; in [4], 72 % Ctrl; in assay [5], 85 % Ctrl; in [6] it was 100 % Ctrl. Moreover, the “% Ctrl @ 10000 nM” value in [7] was 72 % Ctrl; in assay [8], 0 % Ctrl; in assay [9], 100 % Ctrl; in [10] it was 62 % Ctrl; in assay [11], 55 % Ctrl; in assay [12], 100 % Ctrl. Also, the “% Ctrl @ 10000 nM” value in assay [13] was 50 % Ctrl; in assay [14], 81 % Ctrl; in assay [15], 97 % Ctrl; in assay [16], 83 % Ctrl; in [17], 0.4 % Ctrl; in [18] it was 71 % Ctrl. Besides, the “% Ctrl @ 10000 nM” value worked out at 65 % Ctrl in assay [19], 57 % Ctrl in assay [20], 0.3 % Ctrl in assay [21] and 24 % Ctrl in [22].
